Assays:
[1] = biological target: GTP:AMP phosphotransferase AK3, mitochondrial (Rattus norvegicus) (UniProt P29411); assay: Relative Vmax value to rat adenylate kinase III.
[2] = biological target: T1, Adenylate kinase isoenzyme 1 (Rattus norvegicus) (UniProt P39069); assay: Relative Vmax value to Adenylate kinase M isoenzyme (adenylate kinase 1, AK1)
T1 sequence (whole entry): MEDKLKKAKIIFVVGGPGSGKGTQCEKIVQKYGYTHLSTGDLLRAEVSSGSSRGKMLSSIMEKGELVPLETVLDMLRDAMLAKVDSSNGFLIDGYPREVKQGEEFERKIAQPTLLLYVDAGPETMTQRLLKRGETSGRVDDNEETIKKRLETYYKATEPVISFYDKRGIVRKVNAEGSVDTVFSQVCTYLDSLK

[3] = biological target: Adenylate kinase 2, mitochondrial (Rattus norvegicus) (UniProt P29410); assay: Relative Vmax value to rat adenylate kinase II.
[4] = Relative inhibition index was the ratio between AK-M and AK II; format: functional
[5] = biological target: GTP:AMP phosphotransferase AK3, mitochondrial (Rattus norvegicus) (UniProt P29411); assay: Inhibition index was the ratio between KM of AMP and Ki of AK III; format: functional
[6] = biological target: GTP:AMP phosphotransferase AK3, mitochondrial (Rattus norvegicus) (UniProt P29411); assay: Relative Vmax value to Adenylate kinase III
[7] = Relative inhibition index was the ratio between AK-M and AK III; format: functional
[8] = biological target: T1, Adenylate kinase isoenzyme 1 (Rattus norvegicus); assay: Inhibition index was the ratio between KM of AMP and Ki of AK M; format: functional
[9] = biological target: Adenylate kinase 2, mitochondrial (Rattus norvegicus) (UniProt P29410); assay: Inhibition index was the ratio between KM of AMP and Ki of AK II; format: functional
[10] = biological target: T1, Adenylate kinase isoenzyme 1 (Rattus norvegicus); assay: Inhibitory constant of compound with Rat adenylate kinase M isozyme at 1.3 mM concentration in the presence of 0.65 mM AMP
[11] = biological target: GTP:AMP phosphotransferase AK3, mitochondrial (Rattus norvegicus) (UniProt P29411); assay: Inhibitory constant of compound with Rat adenylate kinase IIl at 1.3 mM concentration in the presence of 0.65 mM AMP
[12] = test system: C[C@H](OP(=O)(O)O)[C@H]1OC(n2cnc3c(N)ncnc32)[C@H](O)[C@@H]1O; assay: (§1) Concentration of compound for half-maximal velocity to Adenylate kinase II; format: functional
[13] = test system: CC[C@H](OP(=O)(O)O)[C@H]1OC(n2cnc3c(N)ncnc32)[C@H](O)[C@@H]1O; assay: as §1
[14] = test system: Nc1ncnc2c1ncn2[C@@H]1O[C@H](COP(=O)(O)O)[C@@H](O)[C@H]1O; assay: as §1
[15] = test system: CNc1nc(N)c2ncn([C@@H]3O[C@H](COP(=O)(O)O)[C@@H](O)[C@H]3O)c2n1; assay: as §1
[16] = test system: C[C@@H]1[C@H](O)[C@@H](COP(=O)(O)O)O[C@H]1n1cnc2c(N)ncnc21; assay: as §1
[17] = test system: Nc1nc(Cl)nc2c1ncn2[C@@H]1O[C@H](COP(=O)(O)O)[C@@H](O)[C@H]1O; assay: as §1
[18] = test system: Nc1nc(N)c2ncn([C@@H]3O[C@H](COP(=O)(O)O)[C@@H](O)[C@H]3O)c2n1; assay: as §1
[19] = test system: Nc1ncnc2c1ncn2[C@@H]1O[C@H](CCP(=O)(O)O)[C@@H](O)[C@H]1O; assay: as §1
[20] = test system: CCC[C@H](OP(=O)(O)O)[C@H]1OC(n2cnc3c(N)ncnc32)[C@H](O)[C@@H]1O; assay: as §1
[21] = test system: Nc1ncnc2c1ncn2[C@@H]1O[C@H](/C=C/P(=O)(O)O)[C@@H](O)[C@H]1O; assay: as §1
[22] = biological target: Adenylate kinase 2, mitochondrial (Rattus norvegicus) (UniProt P29410); assay: Relative Vmax value to Adenylate kinase II

GTP:AMP phosphotransferase AK3, mitochondrial (Rattus norvegicus), sequence (P29411 whole entry): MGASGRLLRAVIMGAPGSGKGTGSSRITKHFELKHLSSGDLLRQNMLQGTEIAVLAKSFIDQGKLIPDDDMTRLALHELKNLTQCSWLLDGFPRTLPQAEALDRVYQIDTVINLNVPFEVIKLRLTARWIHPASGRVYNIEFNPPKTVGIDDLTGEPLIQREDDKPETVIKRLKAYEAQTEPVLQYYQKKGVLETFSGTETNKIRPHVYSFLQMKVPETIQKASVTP

Row | Compound | Relative Vmax [1] | Relative Vmax [2] | Relative Vmax [3] | Relative inhibition index [4] | Inhibition index [5] | Relative inhibition index [7] | Inhibition index [8] | Inhibition index [9] | other results
1 | CSc1nc(N)c2ncn([C@@H]3O[C@H](COP(=O)(O)O)[C@@H](O)[C@H]3O)c2n1 | > 0 | > 0 | > 0 |  |  |  |  |  | 
2 | Nc1ncnc2c1ncn2[C@@H]1O[C@H](/C=C/P(=O)(O)O)[C@@H](O)[C@H]1O |  | 2.1 | 12 | 5.8 | 0.057 | 5.1 | 0.29 | 0.05 | Relative Vmax [6]: 13
3 | CC1O[C@@H]2[C@H](O1)[C@@H](COP(=O)(O)O)O[C@H]2n1cnc2c(N)ncnc21 (stereo partly specified) | 0 | 0 | 0 | 4.3 | 0.028 | 4.6 | 0.13 | 0.03 | 
4 | C=CC[C@]1(COP(=O)(O)O)OC(n2cnc3c(N)ncnc32)[C@H](O)[C@@H]1O (stereo partly specified) | > 0 | > 0 | > 0 | 4.6 | 0.12 | 8.1 | 0.97 | 0.21 | 
5 | CNc1ncnc2c1ncn2[C@@H]1O[C@H](COP(=O)(O)O)[C@@H](O)[C@H]1O | 0 | 0 | 0 |  |  |  |  |  | inhibition [10]: 15%; inhibition [11]: 15%
6 | Nc1ncnc2c1ncn2C(CO)OC(CO)COP(=O)(O)O (stereo unspecified) | 0 | 0 | 0 |  |  |  |  |  | 
7 | CCC[C@@H](OP(=O)(O)O)[C@H]1OC(n2cnc3c(N)ncnc32)[C@H](O)[C@@H]1O (stereo partly specified) | 0 | 0 | 0 |  | 0.021 |  |  | 0.025 | 
8 | CNc1nc(N)c2ncn([C@@H]3O[C@H](COP(=O)(O)O)[C@@H](O)[C@H]3O)c2n1 | 10 | 0.7 | 9.7 | 7.4 | 0.022 | 9.1 | 0.2 | 0.027 | 
9 | Cn1cnc2c(ncn2[C@@H]2O[C@H](COP(=O)(O)O)[C@@H](O)[C@H]2O)c1=N | 0 | 0 | 0 |  |  |  |  |  | 
10 | CO[C@H]1[C@@H](O)[C@H](n2cnc3c(N)ncnc32)O[C@@H]1COP(=O)(O)O | > 0 | > 0 | > 0 | 4 | 0.13 | 2.6 | 0.34 | 0.085 | 
11 | CC[C@@H](OP(=O)(O)O)[C@H]1OC(n2cnc3c(N)ncnc32)[C@H](O)[C@@H]1O (stereo partly specified) | 0 | 0 | 0 |  | 0.015 |  |  | 0.015 | 
12 | C[C@@H]1[C@H](O)[C@@H](COP(=O)(O)O)O[C@H]1n1cnc2c(N)ncnc21 | 21 | 5.6 | 29 | 1.2 | 0.1 | 1.1 | 0.11 | 0.088 | 
13 | CCC1O[C@@H]2[C@H](O1)[C@@H](COP(=O)(O)O)O[C@H]2n1cnc2c(N)ncnc21 (stereo partly specified) | 0 | 0 | 0 | 3 | 0.032 | 2.8 | 0.089 | 0.03 | 
14 | Adenylate kinase 2, mitochondrial (Rattus norvegicus) (from UniProt P29410) |  |  |  |  |  |  |  |  | Km [12]: 1300 µM; Km [13]: 1400 µM; Km [14]: 80 µM; Km [15]: 3000 µM; Km [16]: 910 µM; Km [17]: 1600 µM; Km [18]: 1600 µM; Km [19]: 2500 µM; Km [20]: 1100 µM; Km [21]: 1600 µM
15 | CCSc1nc2c(N)ncnc2n1C1O[C@H](COP(=O)(O)O)[C@@H](O)[C@H]1O (stereo partly specified) | 0 | 0 | 0 |  |  |  |  |  | 
16 | Nc1nc(Cl)nc2c1ncn2[C@@H]1O[C@H](COP(=O)(O)O)[C@@H](O)[C@H]1O | 7.5 | 0.13 | 5.8 | 4.2 | 0.05 | 4.2 | 0.21 | 0.05 | 

Row | Compound | Relative Vmax [1] | Relative Vmax [2] | Relative Vmax [3] | Relative inhibition index [4] | Inhibition index [5] | Relative inhibition index [7] | Inhibition index [8] | Inhibition index [9] | other results
17 | CC[C@H](OP(=O)(O)O)[C@H]1OC(n2cnc3c(N)ncnc32)[C@H](O)[C@@H]1O (stereo partly specified) | > 0 | > 0 |  | 11.2 |  |  | 0.64 | 0.057 | Relative Vmax [22]: 2.4
18 | CN(C)c1nc(N)c2ncn(C3O[C@H](COP(=O)(O)O)[C@@H](O)[C@H]3O)c2n1 (stereo partly specified) | 0 | 0.04 | 0 | 5.5 | 0.017 | 4.5 | 0.077 | 0.014 | 
19 | Nc1nc(N)c2ncn([C@@H]3O[C@H](COP(=O)(O)O)[C@@H](O)[C@H]3O)c2n1 | 24 | 7.1 | 18 | 3.4 | 0.042 | 4 | 0.17 | 0.05 | 
20 | CCC[C@H](OP(=O)(O)O)[C@H]1OC(n2cnc3c(N)ncnc32)[C@H](O)[C@@H]1O (stereo partly specified) | 0.82 | > 0 |  | 5.6 | 0.096 | 4.3 | 0.41 | 0.073 | Relative Vmax [22]: 1.3
21 | Nc1ncnc2c1ncn2[C@@H]1O[C@H](COS(=O)(=O)O)[C@@H](O)[C@H]1O | 0 | 0 | 0 |  | 0.11 | 1.1 | 0.12 |  | 
22 | CC(=O)NCCNc1ncnc2c1ncn2C1O[C@H](COP(=O)(O)O)[C@@H](O)[C@H]1O (stereo partly specified) | 0 | 0 | 0 |  |  |  |  |  | 
23 | Nc1ncnc2c1nc(Br)n2[C@@H]1O[C@H](COP(=O)(O)O)[C@@H](O)[C@H]1O | 0 | 0 | 0 |  |  |  |  |  | 
24 | Nc1ncnc2c1ncn2[C@@H]1O[C@H](COP(=O)(O)O)[C@@H](O)[C@H]1O | 100 | 100 | 100 |  |  |  |  |  | 
25 | Nc1ncnc2c1ncn2[C@@H]1O[C@H](CCP(=O)(O)O)[C@@H](O)[C@H]1O | 21 | 2.2 | 11.2 | 4.4 | 0.036 | 3.9 | 0.14 | 0.032 | 
26 | CCNc1nc(N)c2ncn([C@@H]3O[C@H](COP(=O)(O)O)[C@@H](O)[C@H]3O)c2n1 | 2.7 | 0.4 |  |  | 0.015 | 9.3 | 0.14 |  | 
27 | CO[C@@H]1[C@H](O)[C@@H](COP(=O)(O)O)O[C@H]1n1cnc2c(N)ncnc21 | > 0 | > 0 | > 0 | 6.4 | 0.017 | 8.2 | 0.14 | 0.022 | 
28 | C[C@@H](OP(=O)(O)O)[C@H]1OC(n2cnc3c(N)ncnc32)[C@H](O)[C@@H]1O (stereo partly specified) | > 0 | 0 | > 0 |  | 0.008 |  |  | 0.0082 | 
29 | COP(=O)(O)C[C@H]1OC(n2cnc3c(N)ncnc32)[C@H](O)[C@@H]1O (stereo partly specified) | 0 | 0 | 0 |  |  |  |  |  | 
30 | C[C@H](OP(=O)(O)O)[C@H]1OC(n2cnc3c(N)ncnc32)[C@H](O)[C@@H]1O (stereo partly specified) | 8 | 1 | 7 | 4.7 | 0.1 | 2.8 | 0.28 | 0.062 | 
31 | CC1(C)O[C@@H]2[C@H](O1)[C@@H](COP(=O)(O)O)O[C@H]2n1cnc2c(N)ncnc21 | 0 | 0 | 0 | 6.6 | 0.044 | 5.7 | 0.25 | 0.038 | 
